From the CATMoS acute toxicity set (Mansouri et al. 2021)

Assay: GHS categories as the set defines them, by LD50: 1 up to 5, 2 up to 50, 3 up to 300, 4 up to 2000, 5 above 2000 mg/kg
Conditions: rat; in vivo; po

N#CC1(N)CC1
GHS category: 4

CN1CC(c2ccnn2-c2ccccc2)CC2c3cccc4[nH]cc(c34)CC21 (stereo unspecified)
GHS category: 4

C=C1NC(=O)C(C)NC(=O)C(C(C)C)NC2C=Cc3c(C(C)O)cc(nc3C2O)C(=O)OC(C)C2NC(=S)c3csc(n3)C(C(C)(O)C(C)O)NC(=O)C3CSC(=N3)C(=CC)NC(=O)C(C(C)O)NC(=O)c3csc(n3)C3(CCC(c4nc(C(N)=O)cs4)NC3c3csc2n3)NC(=O)C(C)NC1=O (stereo unspecified)
GHS category: 5

CCCCCCCCNC(C)C(O)c1ccc2c(c1)CCCS2 (stereo unspecified)
GHS category: 5

COc1ccc(C2NC(=O)C(C)S2)cc1 (stereo unspecified)
GHS category: 5

CCCCCCCC/C=C\CCCCCCCC#N
GHS category: 5

CC(C)(C)c1ccc(OP(Oc2ccc(C(C)(C)C)cc2C(C)(C)C)Oc2ccc(C(C)(C)C)cc2C(C)(C)C)c(C(C)(C)C)c1
GHS category: 5

CCCCCCCCCNP1(=S)OCc2cc([N+](=O)[O-])ccc2O1 (stereo unspecified)
GHS category: 3

Cc1cnc2c(C(=O)O)c(Cl)ccc2c1
GHS category: 5

CCCOC(=O)Nc1nc(N2CC=CCC2)cc2nc(=O)on12
GHS category: 5

CCC(=O)O[C@H]1[C@H](O[C@@H]2[C@@H](C)[C@H](O[C@H]3C[C@@](C)(OC)[C@@H](O)[C@H](C)O3)[C@@H](C)C(=O)O[C@H](CC)[C@@](C)(O)[C@H](O)[C@@H](C)C(=O)[C@H](C)C[C@@]2(C)O)O[C@H](C)C[C@@H]1N(C)C
GHS category: 5

CC(=CC1C(C)=CCCC1(C)C)C(C)O (stereo unspecified)
GHS category: 5

CCC(=O)C=Cc1ccc(OC)cc1
GHS category: 5

CCOC(=O)c1cnn(C)c1S(=O)(=O)NC(=O)Nc1nc(OC)cc(OC)n1
GHS category: 5

CCn1cc[n+](C)c1
GHS category: 5

CCCc1c(OCc2cccn3c(=O)c(-c4nn[nH]n4)cnc23)ccc(C(C)=O)c1O
GHS category: 5

CN1C(=O)C(C)(C)Oc2cc(C(=O)C=Cc3ccc(O)cc3)ccc21
GHS category: 5

CCCC(CCC)C(=O)Oc1cc(C)ccc1C(C)C
GHS category: 5

O=C(O)c1ccc(/N=N/c2ccc(O)c(C(=O)O)c2)cc1
GHS category: 5

CNC[C@@H]1CC[C@@H](N)[C@@H](O[C@H]2[C@H](O)[C@@H](O[C@H]3OC[C@](C)(O)[C@H](NC)[C@H]3O)[C@H](N)C[C@@H]2N)O1
GHS category: 5

CCOC(=O)Oc1ccc(C2(c3ccc(OC(=O)OCC)cc3)C(=O)Nc3c(C)cccc32)cc1
GHS category: 5

OCCOc1nn(-c2cccc(C(F)(F)F)c2)c2ncccc12
GHS category: 4

COc1ccccc1OCCNCC(O)c1ccc(C)c(S(N)(=O)=O)c1 (stereo unspecified)
GHS category: 5

CCCN[C@H]1CCc2nc(N)sc2C1
GHS category: 4

O=C(O)c1c(Cl)c(Cl)c(C(=O)O)c(Cl)c1Cl
GHS category: 5

CC/C=C\CCOC(=O)C/C=C\CC
GHS category: 5

NC(=O)Oc1ccccc1C(=O)Oc1ccccc1Cl
GHS category: 5

O=C1CCc2ccc(OCC(O)CN3CCC(c4ccccc4)CC3)cc2N1 (stereo unspecified)
GHS category: 4

CC(=O)N(C)C(=O)Oc1cccc2c1OC1(CCCC1)O2
GHS category: 4

CC(C)(C)OOC(C)(C)c1cccc(C(C)(C)OOC(C)(C)C)c1
GHS category: 5

C=CCSc1nc2ccc(Cc3ccccc3)cc2[nH]1
GHS category: 5

O=C(c1ccc(Cl)cc1)N1CCN=C1c1ccccc1
GHS category: 4

O=C(Nc1ccccc1)N(Cc1ccc(Cl)cc1)C1CCCC1
GHS category: 5

COC1(NC(=O)C2SC(=C(C(N)=O)C(=O)O)S2)C(=O)N2C(C(=O)O)=C(CSc3nnnn3C)CSC21 (stereo unspecified)
GHS category: 5

C[C@H]1CO[C@@](Cn2cncn2)(c2cc3cc(Cl)cc(Cl)c3o2)O1
GHS category: 4

CCCCC(CC)C1NC(=O)N(SC(Cl)(Cl)Cl)C1=O (stereo unspecified)
GHS category: 4

CC(OC(=O)ON1C(=O)CCC1=O)OC(=O)C(C)C (stereo unspecified)
GHS category: 4

CCCCCCCCCCCCCCCCNP1(=S)OCc2cc([N+](=O)[O-])ccc2O1 (stereo unspecified)
GHS category: 3

CNC(=O)C(=NNc1ccc(OC)cc1[N+](=O)[O-])C(C)=O
GHS category: 5

CCOC(=O)C1(OC(=O)Cc2ccc(Cl)cc2Cl)CCCCC1
GHS category: 5

CCCC(=O)CC(=O)OCC
GHS category: 4

C=C(C)CCCC(C)CCOC(=O)CC (stereo unspecified)
GHS category: 5

CC1CC(NC(N)=O)NC(=O)N1 (stereo unspecified)
GHS category: 5

O=c1oc2ccc(Cl)cc2n1CO
GHS category: 4

CCCCCCCCCCCCCC(=O)OC(C)C
GHS category: 5

O=C(O)c1cccc2cccc(-c3cccc4cccc(C(=O)O)c34)c12
GHS category: 5

CC(=O)C(N=Nc1cc(C(=O)Nc2cc(Cl)ccc2C)ccc1Cl)C(=O)Nc1cc(C)c(NC(=O)C(N=Nc2cc(C(=O)Nc3cc(Cl)ccc3C)ccc2Cl)C(C)=O)cc1C (stereo unspecified)
GHS category: 5

Nc1nccnc1C(=O)O
GHS category: 5

Cc1ccc2nc(-c3ccc(N)cc3)sc2c1S(=O)(=O)O
GHS category: 5

O=C(Nc1ccc(Cc2ccc(NC(=O)NC3CCCCC3)cc2)cc1)NC1CCCCC1
GHS category: 5

CCCCCCOC(=O)CCC
GHS category: 5

CCCCCCCCCCCCC1=C(OC(C)=O)C(=O)c2ccccc2C1=O
GHS category: 5

CCO[Si](C)(CCCCl)OCC
GHS category: 5

C=CC(C)(O)CCCC(C)CCCC(C)CCCC(C)C (stereo unspecified)
GHS category: 5

O=C1Nc2ccccc2C1=O
GHS category: 5

CCN(CC)CCc1nc(-c2ccccc2)no1
GHS category: 5
